Test: Intramolecular Friedel-Crafts arylation (C(vinyl)-C(aryl) bond) of vinyl cation from vinyl tosylate; [Li]+[B(C6F5)4]- 10 mol%, LiH 5 equiv
Conditions: 1,2-dichlorobenzene, 16.7 mM, 140.0 °C

SMILES: Cc1ccc(S(=O)(=O)N2CCCCc3ccccc3C(=C3CCCCC3)c3ccccc32)cc1 [precursor of 7 (n.d.)]
- ring closure, isolated yield (from Cc1ccc(S(=O)(=O)OC(=C2CCCCC2)c2ccccc2N(CCCCc2ccccc2)S(=O)(=O)c2ccc(C)cc2)cc1, 10-membered ring): 0%

SMILES: Cc1ccc(S(=O)(=O)N2CCc3c(Cl)cccc3C(=C3CCCCC3)c3ccccc32)cc1 [1 -> 2]
- ring closure, isolated yield (from Cc1ccc(S(=O)(=O)OC(=C2CCCCC2)c2ccccc2N(CCc2ccccc2Cl)S(=O)(=O)c2ccc(C)cc2)cc1, 8-membered ring, 18.0 h): 73%

SMILES: CC1=C(c2ccccc2)c2ccccc2CCCC1 [precursor of 20 (n.d.)]
- ring closure, isolated yield (from CC(CCCCc1ccccc1)=C(OS(=O)(=O)c1ccc(C)cc1)c1ccccc1, 8-membered ring): 0%

SMILES: COc1ccc2c(c1)C(=C1CCCCC1)c1ccccc1N(S(=O)(=O)c1ccc(C)cc1)CC2 [SI-27 -> 12]
- ring closure, isolated yield (from COc1ccc(CCN(c2ccccc2C(OS(=O)(=O)c2ccc(C)cc2)=C2CCCCC2)S(=O)(=O)c2ccc(C)cc2)cc1, 8-membered ring): 76%

SMILES: CC(C)=C1c2ccccc2CCSc2ccccc21 [SI-14 -> 8]
- ring closure, isolated yield (from CC(C)=C(OS(=O)(=O)c1ccc(C)cc1)c1ccccc1SCCc1ccccc1, 8-membered ring): 46%

SMILES: CC(C)=C1c2ccccc2CCN(S(=O)(=O)c2ccc(C)cc2)c2sc3c(c21)CCCC3 [SI-42 -> 19 (120 C)]
- ring closure, isolated yield (from CC(C)=C(OS(=O)(=O)c1ccc(C)cc1)c1c(N(CCc2ccccc2)S(=O)(=O)c2ccc(C)cc2)sc2c1CCCC2, 8-membered ring, 20.0 h): 85%

SMILES: CC(C)=C1c2ccccc2CCN(S(=O)(=O)c2ccc(C)cc2)c2ccccc21 [SI-16 -> 5]
- ring closure, isolated yield (from CC(C)=C(OS(=O)(=O)c1ccc(C)cc1)c1ccccc1N(CCc1ccccc1)S(=O)(=O)c1ccc(C)cc1, 8-membered ring, 36.0 h): 56%

SMILES: Cc1ccc(S(=O)(=O)N2CCCc3ccc(C(F)(F)F)cc3C(=C3CCCCC3)c3ccccc32)cc1 [precursor of 14 (n.d.)]
- ring closure, isolated yield (from Cc1ccc(S(=O)(=O)OC(=C2CCCCC2)c2ccccc2N(CCCc2ccc(C(F)(F)F)cc2)S(=O)(=O)c2ccc(C)cc2)cc1, 9-membered ring): 0%

SMILES: CC(C)=C1c2ccccc2CCCN(S(=O)(=O)c2ccc(C)cc2)c2ccccc21 [SI-11 -> 6]
- ring closure, isolated yield (from CC(C)=C(OS(=O)(=O)c1ccc(C)cc1)c1ccccc1N(CCCc1ccccc1)S(=O)(=O)c1ccc(C)cc1, 9-membered ring, 36.0 h): 82%

SMILES: CC(C)=C1c2ccccc2CCN(S(=O)(=O)c2ccc(C)cc2)c2cc(C(F)(F)F)ccc21 [precursor of 17 (n.d., 160 C)]
- ring closure, isolated yield (from CC(C)=C(OS(=O)(=O)c1ccc(C)cc1)c1ccc(C(F)(F)F)cc1N(CCc1ccccc1)S(=O)(=O)c1ccc(C)cc1, 8-membered ring): 0%

SMILES: CC(C)=C1c2ccccc2CCCOc2ccccc21 [SI-45 -> 10]
- ring closure, isolated yield (from CC(C)=C(OS(=O)(=O)c1ccc(C)cc1)c1ccccc1CCCOc1ccccc1, 9-membered ring, 48.0 h): 65%

SMILES: COc1ccc2c(c1)N(S(=O)(=O)c1ccc(C)cc1)CCc1ccccc1C2=C(C)C [SI-46 -> 16]
- ring closure, isolated yield (from COc1ccc(C(OS(=O)(=O)c2ccc(C)cc2)=C(C)C)c(N(CCc2ccccc2)S(=O)(=O)c2ccc(C)cc2)c1, 8-membered ring, 24.0 h): 78%

SMILES: CC(C)=C1c2cc(O[Si](C)(C)C(C)(C)C)ccc2CCN(S(=O)(=O)c2ccc(C)cc2)c2ccccc21 [SI-33 -> 13]
- ring closure, isolated yield (from CC(C)=C(OS(=O)(=O)c1ccc(C)cc1)c1ccccc1N(CCc1ccc(O[Si](C)(C)C(C)(C)C)cc1)S(=O)(=O)c1ccc(C)cc1, 8-membered ring): 79%

SMILES: COc1ccc(CC2Cc3cc(OC)ccc3C(=C(C)C)c3ccccc3S2)cc1 (stereo not drawn) [28 -> 29a (NMR yield)]
- ring closure, isolated yield (from COc1ccc(CC(Cc2cccc(OC)c2)Sc2ccccc2C(OS(=O)(=O)c2ccc(C)cc2)=C(C)C)cc1, 8-membered ring): 25%

SMILES: Cc1ccc(S(=O)(=O)N2CCc3sccc3C(=C3CCCCC3)c3ccccc32)cc1 [SI-38 -> 18]
- ring closure, isolated yield (from Cc1ccc(S(=O)(=O)OC(=C2CCCCC2)c2ccccc2N(CCc2cccs2)S(=O)(=O)c2ccc(C)cc2)cc1, 8-membered ring, 20.0 h): 73%

SMILES: CC(C)=C1c2ccccc2CCCc2ccccc21 [SI-20 -> 9]
- ring closure, isolated yield (from CC(C)=C(OS(=O)(=O)c1ccc(C)cc1)c1ccccc1CCCc1ccccc1, 8-membered ring): 81%

SMILES: Cc1ccc(S(=O)(=O)N2CCc3ccc(Br)cc3C(=C3CCCC3)c3ccccc32)cc1 [SI-36 -> 15]
- ring closure, isolated yield (from Cc1ccc(S(=O)(=O)OC(=C2CCCC2)c2ccccc2N(CCc2ccc(Br)cc2)S(=O)(=O)c2ccc(C)cc2)cc1, 8-membered ring): 79%

SMILES: Cc1ccc(S(=O)(=O)N2CCc3ccc(N(C)C)cc3C(=C3CCCCC3)c3ccccc32)cc1 [SI-24 -> 11]
- ring closure, isolated yield (from Cc1ccc(S(=O)(=O)OC(=C2CCCCC2)c2ccccc2N(CCc2ccc(N(C)C)cc2)S(=O)(=O)c2ccc(C)cc2)cc1, 8-membered ring): 62%

From article PMC10863392
